In patent publication US9346797B1, “2-amino 6-(difluoromethyl)-5,5-difluoro-6-phenyl-3,4,5,6-tetrahydropyridines as BACE1 inhibitors” (H. Lundbeck A/S, priority 2014, dated 2016):
pKi: −log10 of the molar value.

Experiments:
[1] = molecular target: human BACE1 (Homo sapiens (Human), UniProt P56817); assay: BACE1 binding assay (SPA-based radioligand binding); settings: pH 4.5, Ki calculated from IC50
Description: The binding assay was performed as SPA-based assay using a biotinylated form of human BACE1 recombinantly expressed and subsequently purified from Freestyle HEK293 cells. The binding assay was run in a 50 mM sodium acetate buffer, pH 4.5 containing 50 mM NaCl and 0.03% Tween-20 in white clear bottom 384 plates (Corning #3653). 10 nM (final concentration) radioligand ([^3H]—N-((1S,2R)-1-benzyl-3-cyclopropylamino-2-hydroxy-propyl)-5-(methanesulfonyl-methyl-amino)-N—((R)-1-phenyl-ethyl)-isophthalamide) (TRQ11569 purchased from GE Healthcare) was mixed with test compound at a given concentration, 6 nM (final concentration) human BACE1 and 25 μg Streptavidin coated PVT core SPA beads (RPNQ0007, GE Healthcare Life Sciences) in a total volume of 40 μl. Several concentrations of each test compound were tested in the assay for IC50 determination. The plates were incubated for one hour at room temperature and counted in a Wallac Trilux counter. Total and non-specific binding were determined using buffer and 1 μM (final concentration) of the high affinity BACE1 reference inhibitor (S)-6-[3-chloro-5-(5-prop-1-ynyl-pyridin-3-yl)-thiophen-2-yl]-2-imino-3,6-dimethyl-tetrahydro-pyrimidin-4-one, respectively. For each test compound, a IC50 value (the concentration mediating 50% inhibition of the specific binding of the radioligand) was determined from concentration-response curve and used to calculate the Ki from the equation Ki=IC50/(1+L/Kd), where L and Kd are the final concentration of the radioligand used in the assay and the dissociation constant of the radioligand, respectively. The Kd of the radioligand was determined from saturation binding experiments.

[2] = test system: P-gp (MDR1); assay: MDCK-MDR1 assay (permeability/efflux); type: in vitro ADME; settings: dog, Papp BA/Papp AB, 60-minute incubation, Pgp substrate when ≧2
Description: The permeability of the test compounds was assessed in MDCK-MDR1 cells that were cultured to confluency (4-6 days) in a 96 transwell plate. Test compounds were diluted with the transport buffer (HBSS+1% BSA) to a concentration of 0.5 μM and applied to the apical or basolateral side of the cell monolayer. Permeation of the test compounds from A to B direction or B to A direction was determined in triplicate over a 60-minute incubation time at 37° C. and 5% CO2 with a relative humidity of 95%. Test compounds were quantified by LC-MS/MS analysis based on the peaks area ratios of analyte/IS in both the receiver and donor wells of the transwell plate.
The apparent permeability coefficient Papp (cm/s) was calculated using the equation: Papp=(dCr/dt)×Vr/(A×C0)
Where dCr/dt is the cumulative concentration of compound in the receiver chamber as a function of time (μM/s); Vr is the solution volume in the receiver chamber (0.05 mL on the apical side; 0.25 mL on the basolateral side); A is the surface area for the transport, i.e. 0.0804 cm^2 for the area of the monolayer; CO is the initial concentration in the donor chamber (μM).
Compounds are classified Pgp substrates when efflux ratio (Papp BA/Papp AB) is ≧2.

Sequence of human BACE1 (P56817 46-501): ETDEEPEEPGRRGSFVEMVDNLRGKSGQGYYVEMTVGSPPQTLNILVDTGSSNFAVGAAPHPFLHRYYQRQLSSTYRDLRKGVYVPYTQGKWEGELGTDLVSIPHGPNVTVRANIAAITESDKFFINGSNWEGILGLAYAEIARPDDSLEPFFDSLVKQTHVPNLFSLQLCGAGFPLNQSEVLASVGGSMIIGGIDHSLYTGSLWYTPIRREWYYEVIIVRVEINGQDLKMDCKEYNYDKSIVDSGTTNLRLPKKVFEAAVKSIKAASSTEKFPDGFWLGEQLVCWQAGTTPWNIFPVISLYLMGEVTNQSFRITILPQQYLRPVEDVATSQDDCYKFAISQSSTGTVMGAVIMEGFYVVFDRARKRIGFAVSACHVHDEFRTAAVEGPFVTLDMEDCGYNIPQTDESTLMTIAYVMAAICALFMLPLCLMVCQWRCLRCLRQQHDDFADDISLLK

SMILES | pKi [1] | efflux ratio at 60 min, 0.5 μM [2]
NC1=N[C@@](c2cc(NC(=O)c3ccc(Cl)cn3)ccc2F)(C(F)F)C(F)(F)CC1 [Compound 1, (S)—N-(3-(6-amino-2-(difluoromethyl)-3,3-difluoro-2,3,4,5-tetrahydropyridin-2-yl)-4-fluorophenyl)-5-chloropicolinamide] | 7.74 | 1.16
COc1cnc(C(=O)Nc2ccc(F)c([C@@]3(C(F)F)N=C(N)CCC3(F)F)c2)c(C)n1 [Compound 10, (S)—N-(3-(6-amino-2-(difluoromethyl)-3,3-difluoro-2,3,4,5-tetrahydropyridin-2-yl)-4-fluorophenyl)-5-methoxy-3-methylpyrazine-2-carboxamide] | 7.80 | 0.98
NC1=N[C@@](c2cc(NC(=O)c3ccc(Br)cn3)ccc2F)(C(F)F)C(F)(F)CC1 [Compound 12, (S)—N-(3-(6-amino-2-(difluoromethyl)-3,3-difluoro-2,3,4,5-tetrahydropyridin-2-yl)-4-fluorophenyl)-5-bromopicolinamide] | 8.21 | 1.31
Cc1nc(C(=O)Nc2ccc(F)c([C@@]3(C(F)F)N=C(N)CCC3(F)F)c2)co1 [Compound 4, (S)—N-(3-(6-amino-2-(difluoromethyl)-3,3-difluoro-2,3,4,5-tetrahydropyridin-2-yl)-4-fluorophenyl)-2-methyloxazole-4-carboxamide] | 7.70 | 4.01
N#Cc1ccc(C(=O)Nc2ccc(F)c([C@@]3(C(F)F)N=C(N)CCC3(F)F)c2)nc1 [Compound 7, (S)—N-(3-(6-amino-2-(difluoromethyl)-3,3-difluoro-2,3,4,5-tetrahydropyridin-2-yl)-4-fluorophenyl)-5-cyanopicolinamide] | 8.13 | 2.43

More lines, now with the values ahead:

pKi [1] | efflux ratio at 60 min, 0.5 μM [2] | SMILES
7.15 | 0.92 | Cc1csc(C(=O)Nc2ccc(F)c([C@@]3(C(F)F)N=C(N)CCC3(F)F)c2)n1 [Compound 8, (S)—N-(3-(6-amino-2-(difluoromethyl)-3,3-difluoro-2,3,4,5-tetrahydropyridin-2-yl)-4-fluoro-phenyl)-4-methylthiazole-2-carboxamide]
7.64 | 1.75 | NC1=N[C@@](c2cc(NC(=O)c3ccc(F)cn3)ccc2F)(C(F)F)C(F)(F)CC1 [Compound 2, (S)—N-(3-(6-amino-2-(difluoromethyl)-3,3-difluoro-2,3,4,5-tetrahydropyridin-2-yl)-4-fluorophenyl)-5-fluoropicolinamide]
7.70 | 1.36 | NC1=N[C@@](c2cc(NC(=O)c3cnc(C(F)F)cn3)ccc2F)(C(F)F)C(F)(F)CC1 [Compound 6, (S)—N-(3-(6-amino-2-(difluoromethyl)-3,3-difluoro-2,3,4,5-tetrahydropyridin-2-yl)-4-fluorophenyl)-5-(difluoromethyl)pyrazine-2-carboxamide]
8.16 | 11 | COc1cnc(C(=O)Nc2ccc(F)c([C@@]3(C(F)F)N=C(N)CCC3(F)F)c2)nc1 [Compound 9, (S)—N-(3-(6-amino-2-(difluoromethyl)-3,3-difluoro-2,3,4,5-tetrahydropyridin-2-yl)-4-fluorophenyl)-5-methoxypyrimidine-2-carboxamide]
8.11 | 2.68 | Cc1cc(C#N)cnc1C(=O)Nc1ccc(F)c([C@@]2(C(F)F)N=C(N)CCC2(F)F)c1 [Compound 11, (S)—N-(3-(6-amino-2-(difluoromethyl)-3,3-difluoro-2,3,4,5-tetrahydropyridin-2-yl)-4-fluorophenyl)-5-cyano-3-methylpicolinamide]
